The results in this text go back to patent US20190327974A1, “SYNERGISTS FOR IMPROVED PESTICIDES” (priority 2017, published 2019).

Structures are written as SMILES.

What all share (assay): Protease selectivity panel
Holding throughout (type): biochemical
Common to all, as to details: 100 μM compound, n = 2

For assay [1], the target named is T1, PSMB10 (Homo sapiens, UniProt P40306).
T1 construct: purchased BOSTON-BIOCHEM
As for the experimental part:
(§1) Test compounds were dissolved in 100% DMSO to make 10 mM stock. Final compound concentration in assay is […]. Compounds were tested in duplicate wells at single concentration and the final concentration of DMSO in all assays was kept at 1%. Five reference compounds, AEBSF, Carfilzomib, Granzyme B Inhibitor II, Dec-RVKR-CMK, and Teneligliptin hydrobromide, were tested in an identical manner with 8 concentration points at 5× dilutions.

Assay [2] concerns the target T2, PSMB9 (Homo sapiens, UniProt P28065).
T2 construct: purchased BOSTON-BIOCHEM
As to the method: as §1

In assay [3] the target is T3, Thrombin (Homo sapiens, UniProt P00734).
T3 construct: Thrombin; purchased R&D Systems
As to the method: as §1

The target in assay [4] is T4, Plasma-Kallikrein (Homo sapiens, UniProt P03952).
T4 construct: purchased R&D Systems
As to the method: as §1

Assay [5] has as its target T5, Kallikrein11 (Homo sapiens, UniProt Q9UBX7).
T5 construct: purchased R&D Systems
T5 sequence (Q9UBX7 54-282): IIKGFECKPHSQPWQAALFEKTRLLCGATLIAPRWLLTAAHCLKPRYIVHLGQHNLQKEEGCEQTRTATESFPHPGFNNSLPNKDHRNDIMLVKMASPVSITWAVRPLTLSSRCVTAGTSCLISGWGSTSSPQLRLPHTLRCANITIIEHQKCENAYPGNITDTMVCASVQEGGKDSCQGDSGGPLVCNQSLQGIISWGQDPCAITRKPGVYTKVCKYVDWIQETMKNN
As for the experimental part: as §1

The target of assay [6] is T6, Factor VII (Homo sapiens, UniProt P08709).
T6 construct: purchased R&D Systems
As for the experimental part: as §1

Assay [7] concerns the target T7, PSMB8 (Homo sapiens, UniProt P28062).
T7 construct: purchased BOSTON-BIOCHEM
As for the experimental part: as §1

The target of assay [8] is T8, Prolyl Oligopeptidase (Homo sapiens, UniProt P48147).
T8 construct: purchased R&D Systems
T8 sequence (P48147 1-710): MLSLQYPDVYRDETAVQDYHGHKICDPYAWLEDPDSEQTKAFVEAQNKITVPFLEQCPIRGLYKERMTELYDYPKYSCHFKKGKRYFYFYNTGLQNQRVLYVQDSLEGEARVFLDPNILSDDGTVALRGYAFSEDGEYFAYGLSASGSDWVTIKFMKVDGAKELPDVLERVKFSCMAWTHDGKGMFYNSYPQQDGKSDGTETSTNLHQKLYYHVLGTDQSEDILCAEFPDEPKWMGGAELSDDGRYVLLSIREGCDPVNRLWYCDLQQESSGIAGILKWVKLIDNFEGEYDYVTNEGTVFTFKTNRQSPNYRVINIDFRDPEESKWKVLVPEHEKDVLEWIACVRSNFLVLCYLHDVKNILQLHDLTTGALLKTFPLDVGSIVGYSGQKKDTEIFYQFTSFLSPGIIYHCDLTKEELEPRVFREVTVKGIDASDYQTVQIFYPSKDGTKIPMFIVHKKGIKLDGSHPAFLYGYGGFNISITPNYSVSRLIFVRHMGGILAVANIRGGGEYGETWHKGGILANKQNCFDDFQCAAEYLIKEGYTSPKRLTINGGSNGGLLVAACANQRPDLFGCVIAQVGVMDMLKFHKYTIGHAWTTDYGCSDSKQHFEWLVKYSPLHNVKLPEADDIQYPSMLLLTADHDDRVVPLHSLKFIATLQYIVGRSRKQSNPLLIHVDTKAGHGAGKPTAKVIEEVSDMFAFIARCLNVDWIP
As for the experimental part: as §1

Assay [9] has as its target T9, Kallikrein13 (Homo sapiens, UniProt Q9UKR3).
T9 construct: purchased R&D Systems
T9 sequence (Q9UKR3 26-277 limits assumed): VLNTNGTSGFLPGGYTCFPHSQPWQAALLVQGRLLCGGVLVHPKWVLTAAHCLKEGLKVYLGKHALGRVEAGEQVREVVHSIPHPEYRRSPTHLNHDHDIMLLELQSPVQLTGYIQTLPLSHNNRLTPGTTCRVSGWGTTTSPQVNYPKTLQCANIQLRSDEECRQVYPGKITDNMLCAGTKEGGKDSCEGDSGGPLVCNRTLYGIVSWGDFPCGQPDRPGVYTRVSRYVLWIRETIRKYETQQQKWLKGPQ
As to the method: as §1

Assay [10] concerns the target T10, tPA (Homo sapiens, UniProt P00750).
T10 construct: purchased R&D Systems
As to the method: as §1

Assay [11] deals with T11, Factor-Xa (Homo sapiens, UniProt P00742).
T11 construct: Factor Xa; Calbiochem; B76791; purchased Calbiochem
As to the method: as §1

Assay [12] concerns the target T12, Spinesin (Homo sapiens, UniProt Q9H3S3).
T12 construct: purchased R&D Systems
As for the experimental part: as §1

Assay [13] deals with T13, Plasmin (Homo sapiens, UniProt P00747).
T13 construct: purchased R&D Systems
As for the experimental part:
as §1

For assay [14], the target named is T14, GranzymeK (Homo sapiens, UniProt P49863).
T14 construct: purchased ENZO
T14 sequence (P49863 27-264): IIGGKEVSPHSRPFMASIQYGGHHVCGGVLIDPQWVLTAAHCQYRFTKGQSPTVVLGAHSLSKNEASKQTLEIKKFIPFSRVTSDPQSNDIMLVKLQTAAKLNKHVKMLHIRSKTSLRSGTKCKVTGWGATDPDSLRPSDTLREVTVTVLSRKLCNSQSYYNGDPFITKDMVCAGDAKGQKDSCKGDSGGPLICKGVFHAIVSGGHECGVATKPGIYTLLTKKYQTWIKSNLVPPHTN
As for the experimental part:
as §1

Assay [15] concerns the target T15, PSMB7 (Homo sapiens, UniProt Q99436).
T15 construct: purchased BOSTON-BIOCHEM
As to the method: as §1

Assay [16] addresses T16, DPP9 (Homo sapiens, UniProt Q86TI2).
T16 construct: purchased ENZO
As for the experimental part: as §1

T6 sequence (P08709 213-466 limits assumed): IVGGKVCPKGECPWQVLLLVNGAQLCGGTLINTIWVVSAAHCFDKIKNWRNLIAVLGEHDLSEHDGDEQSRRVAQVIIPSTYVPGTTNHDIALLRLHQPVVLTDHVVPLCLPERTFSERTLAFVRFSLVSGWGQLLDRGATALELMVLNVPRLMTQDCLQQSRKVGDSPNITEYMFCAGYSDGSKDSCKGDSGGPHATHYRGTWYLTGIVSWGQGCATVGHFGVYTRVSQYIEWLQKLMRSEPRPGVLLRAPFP
T6 sequence (P08709 61-212 partner limits assumed): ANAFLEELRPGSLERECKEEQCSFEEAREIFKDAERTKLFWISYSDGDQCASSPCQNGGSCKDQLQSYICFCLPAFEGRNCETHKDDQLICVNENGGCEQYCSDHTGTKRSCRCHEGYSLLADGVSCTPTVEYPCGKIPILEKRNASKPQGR
T6 sequence (P13726 33-251 partner limits assumed): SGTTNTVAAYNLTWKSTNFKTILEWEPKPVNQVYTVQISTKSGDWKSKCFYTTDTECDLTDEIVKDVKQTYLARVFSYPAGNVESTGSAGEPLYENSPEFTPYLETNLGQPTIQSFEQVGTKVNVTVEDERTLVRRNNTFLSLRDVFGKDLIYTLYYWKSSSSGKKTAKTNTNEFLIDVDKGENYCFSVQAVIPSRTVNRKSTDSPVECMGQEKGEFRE
T13 sequence (P00747 581-810 limits assumed): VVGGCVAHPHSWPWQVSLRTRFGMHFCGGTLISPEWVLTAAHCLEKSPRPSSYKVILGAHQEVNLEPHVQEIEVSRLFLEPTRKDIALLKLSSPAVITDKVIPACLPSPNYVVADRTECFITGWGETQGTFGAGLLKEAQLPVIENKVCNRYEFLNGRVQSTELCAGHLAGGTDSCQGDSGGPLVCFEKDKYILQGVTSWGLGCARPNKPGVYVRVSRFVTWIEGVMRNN
T13 sequence (P00747 97-580 partner limits assumed): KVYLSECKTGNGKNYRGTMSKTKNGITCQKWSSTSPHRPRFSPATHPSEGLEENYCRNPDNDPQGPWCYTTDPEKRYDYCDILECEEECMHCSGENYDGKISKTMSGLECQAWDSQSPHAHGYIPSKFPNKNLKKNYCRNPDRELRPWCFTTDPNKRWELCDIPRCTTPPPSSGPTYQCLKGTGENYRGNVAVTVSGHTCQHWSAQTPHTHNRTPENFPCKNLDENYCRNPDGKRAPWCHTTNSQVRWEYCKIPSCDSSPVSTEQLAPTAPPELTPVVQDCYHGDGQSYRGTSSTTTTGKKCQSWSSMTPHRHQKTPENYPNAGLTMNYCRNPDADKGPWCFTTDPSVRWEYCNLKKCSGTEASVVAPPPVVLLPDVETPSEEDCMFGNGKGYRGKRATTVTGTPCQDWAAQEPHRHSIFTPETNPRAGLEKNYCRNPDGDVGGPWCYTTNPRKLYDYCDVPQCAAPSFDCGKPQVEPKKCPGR
T16 sequence (Q86TI2 whole entry): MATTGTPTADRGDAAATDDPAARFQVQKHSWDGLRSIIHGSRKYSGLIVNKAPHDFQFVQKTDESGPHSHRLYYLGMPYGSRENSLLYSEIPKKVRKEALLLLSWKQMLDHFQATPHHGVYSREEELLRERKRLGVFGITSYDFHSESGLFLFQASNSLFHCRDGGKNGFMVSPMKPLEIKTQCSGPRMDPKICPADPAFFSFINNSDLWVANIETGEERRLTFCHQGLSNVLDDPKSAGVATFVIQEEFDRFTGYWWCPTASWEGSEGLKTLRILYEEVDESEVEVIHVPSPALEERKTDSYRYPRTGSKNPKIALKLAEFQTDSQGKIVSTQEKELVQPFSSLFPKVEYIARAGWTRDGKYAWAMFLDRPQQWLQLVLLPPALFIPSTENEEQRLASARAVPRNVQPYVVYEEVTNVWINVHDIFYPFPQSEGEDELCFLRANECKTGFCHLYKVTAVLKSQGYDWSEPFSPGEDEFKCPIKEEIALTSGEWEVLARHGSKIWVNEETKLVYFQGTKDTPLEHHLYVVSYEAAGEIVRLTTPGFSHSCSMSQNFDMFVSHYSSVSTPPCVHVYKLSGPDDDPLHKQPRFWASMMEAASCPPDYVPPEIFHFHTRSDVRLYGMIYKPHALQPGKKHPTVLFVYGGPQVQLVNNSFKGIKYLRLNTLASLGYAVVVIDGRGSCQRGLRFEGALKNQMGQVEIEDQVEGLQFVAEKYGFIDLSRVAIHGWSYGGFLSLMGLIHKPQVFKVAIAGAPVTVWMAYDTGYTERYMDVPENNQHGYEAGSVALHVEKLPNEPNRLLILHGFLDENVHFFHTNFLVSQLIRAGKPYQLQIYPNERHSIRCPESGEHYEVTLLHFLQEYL
T4 sequence (P03952 20-638): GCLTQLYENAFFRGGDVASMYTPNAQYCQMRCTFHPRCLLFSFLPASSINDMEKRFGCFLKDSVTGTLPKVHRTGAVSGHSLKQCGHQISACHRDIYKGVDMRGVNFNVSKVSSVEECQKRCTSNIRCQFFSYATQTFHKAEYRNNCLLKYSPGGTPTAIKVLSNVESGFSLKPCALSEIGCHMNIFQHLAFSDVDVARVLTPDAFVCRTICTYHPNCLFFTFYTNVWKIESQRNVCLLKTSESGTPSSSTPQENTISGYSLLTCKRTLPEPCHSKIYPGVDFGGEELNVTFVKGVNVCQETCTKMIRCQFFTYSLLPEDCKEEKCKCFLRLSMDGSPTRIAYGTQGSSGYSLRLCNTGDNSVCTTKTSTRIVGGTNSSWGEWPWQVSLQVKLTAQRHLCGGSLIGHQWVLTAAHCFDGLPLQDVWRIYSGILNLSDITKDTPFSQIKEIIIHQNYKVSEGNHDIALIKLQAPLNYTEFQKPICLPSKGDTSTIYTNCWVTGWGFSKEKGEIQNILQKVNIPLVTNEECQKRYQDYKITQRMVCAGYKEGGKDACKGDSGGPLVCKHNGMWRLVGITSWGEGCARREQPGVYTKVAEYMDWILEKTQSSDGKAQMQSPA
T11 sequence (P00742 235-488 limits assumed): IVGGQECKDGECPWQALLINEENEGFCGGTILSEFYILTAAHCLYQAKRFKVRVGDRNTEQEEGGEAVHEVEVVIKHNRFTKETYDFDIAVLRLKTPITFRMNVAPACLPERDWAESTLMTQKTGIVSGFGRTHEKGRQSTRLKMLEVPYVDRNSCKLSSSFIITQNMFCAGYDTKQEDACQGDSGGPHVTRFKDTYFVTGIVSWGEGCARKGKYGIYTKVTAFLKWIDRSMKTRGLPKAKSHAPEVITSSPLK
T11 sequence (P00742 41-179 partner limits assumed): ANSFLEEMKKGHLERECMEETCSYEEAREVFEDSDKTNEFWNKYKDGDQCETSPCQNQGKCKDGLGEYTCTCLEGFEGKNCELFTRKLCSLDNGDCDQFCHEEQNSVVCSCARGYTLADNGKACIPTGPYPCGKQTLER
T10 sequence (P00750 36-562): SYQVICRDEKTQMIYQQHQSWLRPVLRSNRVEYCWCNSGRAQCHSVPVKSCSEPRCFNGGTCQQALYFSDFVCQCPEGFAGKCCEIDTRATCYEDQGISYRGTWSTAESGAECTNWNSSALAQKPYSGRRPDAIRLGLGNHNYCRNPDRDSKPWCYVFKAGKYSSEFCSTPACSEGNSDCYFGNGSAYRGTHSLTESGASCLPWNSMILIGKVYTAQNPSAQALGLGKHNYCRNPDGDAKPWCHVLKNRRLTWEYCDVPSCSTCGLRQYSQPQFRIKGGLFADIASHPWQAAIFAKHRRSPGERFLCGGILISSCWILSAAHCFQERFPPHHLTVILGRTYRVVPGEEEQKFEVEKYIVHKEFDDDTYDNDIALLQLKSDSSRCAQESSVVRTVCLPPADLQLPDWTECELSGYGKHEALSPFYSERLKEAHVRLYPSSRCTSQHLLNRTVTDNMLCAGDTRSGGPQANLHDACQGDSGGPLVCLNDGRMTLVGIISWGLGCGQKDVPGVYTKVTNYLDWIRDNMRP
T12 sequence (Q9H3S3 218-457 limits assumed): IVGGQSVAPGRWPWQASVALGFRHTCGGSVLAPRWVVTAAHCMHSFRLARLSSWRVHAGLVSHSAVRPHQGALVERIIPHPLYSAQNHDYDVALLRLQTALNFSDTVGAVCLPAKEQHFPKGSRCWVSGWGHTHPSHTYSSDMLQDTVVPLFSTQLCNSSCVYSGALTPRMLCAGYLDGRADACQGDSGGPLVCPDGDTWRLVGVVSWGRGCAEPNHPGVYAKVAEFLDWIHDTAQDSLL

For orientation: inhibition means the drop in the measured response relative to a control, in per cent. On to `OB(O)c1cc(Br)cc(N2CCCC2)c1` [Compound 3], for which the inhibition at 100 µM in assay [1] was 43%; in assay [2], 12%; in assay [3], 32%; in assay [4], 6%; in assay [5], -71%; in assay [6], 15%. Besides, the inhibition at 100 µM in assay [7] was 19%; in assay [8], 61%; in [9] it was 3%; in assay [10] it was 26%; in assay [11], 53%; in assay [12], 26%. Moreover, the inhibition at 100 µM turned out to be 13% in [13], 5% in assay [14], 39% in assay [15] and 45% in [16].
Consider `OB(O)c1cc(Br)cc(OCc2ccccc2)c1` [Compound 3.9], for which the inhibition at 100 µM is 78% in assay [1]; 50% in assay [2]; 54% in assay [3]; 41% in assay [4]; -148% in [5]; 26% in assay [6]. For the same compound, the inhibition at 100 µM in assay [7] is 52%; in assay [8], 48%; in assay [9] it was -1%; in assay [10], 40%; in assay [11], 26%; in assay [12], 13%. Moreover, the inhibition at 100 µM in [13] was determined as 16%; in assay [14], 14%; in assay [15] it was 70%; in assay [16] it was 75%.
Regarding `OB(O)c1cc(Br)cc(Oc2ccccc2)c1` [Compound 3.10, 3-Bromo-5-phenoxyfenylboronic acid], the inhibition at 100 µM in [1] was 45%; in [2] it was 15%; in assay [3], 58%; in assay [4], 64%; in assay [5], -43%; in assay [6] it was 53%. Also, the inhibition at 100 µM amounted to 49% in [7]; 30% in assay [8]; 0% in [9]; 19% in assay [10]; 35% in assay [11]; 34% in assay [12]. The inhibition at 100 µM is -2% in assay [13], 3% in [14], 48% in [15] and 71% in assay [16].
